According to patent US3978055A, “Arylamino pyrimidinic derivatives” (priority 1973, dated 1976):

Tests used:
[1] = system: number of explorations in the escape enclosure; assay: Number of explorations in the escape enclosure (sedative properties); assay type: in vivo, mouse; conditions: po; mouse, escape enclosure, 100mg/kg/p.o.; read-out: Percentage diminution of number of explorations
[2] = system: local oedema caused by sub-plantar injection of carraghenine; assay: Sub-plantar oedema caused by carraghenine (antiinflammatory); assay type: in vivo, rat; conditions: rat, read-out: Percentage reduction of subplantar oedema; for inhibition in vivo at 100 mg/kg: 100 mg/kg/PO
Excerpt: These properties are shown by a diminution of the local oedema caused by the sub-plantar injection of a phlogogenic agent, such as carraghenine, in the rat following the oral administration of derivatives of formula I.

[3] = Lethal doses / percentage mortality; assay type: in vivo; conditions: in vivo, mouse; for LD50: po, Table IX, read-out: DE 50 (second column; DL 50) (converted)
Excerpt: As a result of a comparison between the pharmacologically active doses mentioned above, and the lethal doses listed in the following table XIV, the difference between the doses is sufficiently great to permit the utilisation of the derivatives of formula I in therapeutics.

Shay ulcers = assay: Gastric ulcers provoked by tying of the pylorus (Shay ulcers); assay type: in vivo; conditions: intraduodenal; rat, 50mg/kg/i.d.; read-out: Percentage reduction of shay ulcers
Procedure: The derivatives of formula I, administered by oral means, reduce the extent of gastric ulcers provoked in a rat by tying of the pylorus (Shay ulcers)
Table IV indicated, by way of example, the results obtained by the administration of 50mg/kg/i.d. of different derivatives of formula I.

[4] = system: isolated heart of guinea-pig; assay: Augmentation of flow of coronary vessels of isolated heart (vasodilatatory); conditions: Cavia porcellus, read-out: Percentage augmentation of flow of isolated heart of guinea-pig; for activation at 1 µg/mL: 1 μg/ml
Procedure: The derivatives of formula I are capable of augmenting the flow of the coronary vessels of this isolated heart of a guinea - pig, when said derivatives are added in the perfusion liquid of said organ.
The percentage augmentation of the flow of the isolated heart of the guinea - pig by adding different derivatives of formula I to the perfusion liquid are given by way of example in the following Table V.

volume of urine emitted = assay: Augmentation of urinary elimination (diuretic properties); assay type: in vivo; conditions: po; mouse, 25mg/kg/p.o., 6 hours; read-out: Percentage augmentation of urinary elimination
Procedure: The derivatives of formula I, administered by oral means to the mouse, simultaneously with a volume of 1ml of an isotonic solution of sodium chloride per 25g of the corporeal weight of the mouse, are capable of provoking an augmentation of the volume of urine emitted by reference to control animals, the volume being measured for 6 hours following administration.
The following Table VII indicates, by way of example the percentage augmentation of urinary elimination resulting from the administration of 25mg/kg/p.o. of different derivatives of formula I.

[5] = system: painful stretchings caused by phenylbenzoquinone; assay: Analgesic test with phenylbenzoquinone (painful stretchings); assay type: in vivo; conditions: Mus musculus, po; for ED50: read-out: 105 DE (DE 50)
[6] = system: arterial pressure of anaesthetised rat; assay: Lowering of arterial pressure of anaesthetised rat (hypotensive properties); assay type: in vivo; conditions: 1 mg/kg/i.v.; for Duration of effect: hypotensive effect
Excerpt: Administered by intraveinous means to an anaesthetised rat, the derivatives of formula I provoke a lowering of the arterial pressure.
By way of example, the following Table VIII mentions the results obtained by administration of different derivatives of formula I.

[7] = read-out: Percentage of diminution of the number of painful stretchings

SMILES	inhibition in vivo at 100 mg/kg [2] [%]	mortality ([3]; 2000 mg/kg, 2 000 mg/kg/PO) [%]	inhibition in vivo at 50 mg/kg (Shay ulcers) [%]	change in vivo at 25 mg/kg (volume of urine emitted) [%]	other results
COc1cc(-c2nc(C)cc(Nc3ccc(C(=O)N4CCOCC4)cc3)n2)cc(OC)c1OC [72 536]	35	0	–	–	inhibition in vivo at 100 mg/kg [1]: 75%
Cc1cc(Nc2ccc(C(=O)N3CCN(c4ccccc4)CC3)cc2)nc(-c2ccc(Cl)cc2)n1 [72 260]	–	0	35	–	activation at 1 µg/mL [4]: 70%
COc1cc(-c2nc(C)cc(Nc3ccc(C(=O)N4CCCCC4)cc3)n2)cc(OC)c1OC [72 317]	35	0	40	–	–
Cc1cc(Nc2ccc(OCCN3CCCCC3)cc2)nc(-c2ccccc2)n1 [730 221]	–	–	–	–	mortality ([3]; 520 mg/kg/PO): ~50%
Cc1cc(Nc2ccccc2C(N)=O)nc(-c2ccc(Cl)cc2)n1 [72 257]	–	0	50	–	activation at 1 µg/mL [4]: 80%
Cc1cc(Nc2ccc(OCCN3CCOCC3)cc2)nc(-c2cccc(Cl)c2)n1 [730 695]	–	0	–	43	inhibition in vivo at 100 mg/kg [5, 7]: 85%
Cc1cc(Nc2ccc(C(=O)N3CCCC3)cc2)nc(-c2ccc3c(c2)OCO3)n1 [72 623]	–	0	–	85	–
Cc1cc(Nc2ccc(OCCN3CCOCC3)cc2)nc(-c2ccc(Cl)cc2)n1 [730 732]	–	0	–	–	ED50 [5]: 23 mg/kg; LD50 [3]: > 2000 mg/kg
Cc1cc(Nc2ccc(C(=O)N3CCOCC3)cc2)nc(-c2cccc(F)c2)n1 [72 754]	–	0	40	50	–
Cc1cc(Nc2ccc(C(=O)N3CCCCC3)cc2)nc(-c2ccc3c(c2)OCO3)n1 [72 687]	–	0	40	–	–
Cc1cc(Nc2ccc(OCCN(C)C)cc2)nc(-c2ccccc2)n1 [730 136]	–	0	–	–	inhibition in vivo at 100 mg/kg [5, 7]: 46%
Cc1cc(Nc2ccc(C(=O)N(C)C)cc2)nc(-c2ccc(Cl)cc2)n1 [72 327]	35	0	–	85	Percentage reduction of arterial pressure of anaesthetised rat [6]: 30%; Duration of effect [6]: 30 mn
Cc1cc(Nc2ccccc2C(N)=O)nc(-c2cccc(F)c2)n1 [72 783]	–	0	–	80	–
Cc1cc(Nc2ccccc2C(=O)OCC2COC(C)(C)O2)nc(-c2ccc3c(c2)OCO3)n1 (stereo not shown) [72 701]	–	0	–	45	inhibition in vivo at 100 mg/kg [5, 7]: 45%
Cc1cc(Nc2ccccc2C(=O)OCC2COC(C)(C)O2)nc(-c2cccc(F)c2)n1 (stereo not shown) [72 796]	–	0	–	–	activation at 1 µg/mL [4]: 60%
Cc1cc(Nc2ccc(C(N)=O)cc2)nc(-c2cccc(F)c2)n1 [72 773]	40	~20	40	110	inhibition in vivo at 100 mg/kg [1]: 45%
CCOC(=O)c1ccc(Nc2cc(C)nc(-c3cccc(C(F)(F)F)c3)n2)cc1 [72 505]	–	0	–	–	activation at 1 µg/mL [4]: 50%
COc1cc(-c2nc(C)cc(Nc3ccc(C(=O)N4CCN(c5ccccc5)CC4)cc3)n2)cc(OC)c1OC [72 450]	–	0	–	–	inhibition in vivo at 100 mg/kg [1]: 35%; activation at 1 µg/mL [4]: 85%
COc1cc(-c2nc(C)cc(Nc3ccc(C(=O)N4CCN(C)CC4)cc3)n2)cc(OC)c1OC [72 462]	35	0	–	–	inhibition in vivo at 100 mg/kg [5, 7]: 40%
Cc1cc(Nc2ccc(OCCN3CCCCCC3)cc2)nc(-c2cccc(Cl)c2)n1 [730 283]	–	–	45	–	activation at 0.1 µg/mL ([4]; 0.1 μg/ml): 61%; inhibition in vivo at 100 mg/kg [5, 7]: 57%; mortality ([3]; 1000 mg/kg, 1 000 mg/kg/PO): ~50%

SMILES	inhibition in vivo at 100 mg/kg [2] [%]	mortality ([3]; 2000 mg/kg, 2 000 mg/kg/PO) [%]	inhibition in vivo at 50 mg/kg (Shay ulcers) [%]	change in vivo at 25 mg/kg (volume of urine emitted) [%]	other results
Cc1cc(Nc2ccc(OCCN3CCCCC3)cc2)nc(-c2cccc(F)c2)n1 [730 231]	–	–	50	–	ED50 [5]: 27 mg/kg; mortality ([3]; 975 mg/kg/PO): ~50%; LD50 [3]: 975 mg/kg
Cc1cc(Nc2ccc(OCCN(C)C)cc2)nc(-c2cccc(F)c2)n1 [730 224]	–	0	–	–	ED50 [5]: 30 mg/kg; LD50 [3]: > 2000 mg/kg
Cc1cc(Nc2ccc(C(=O)N3CCOCC3)cc2)nc(-c2ccc3c(c2)OCO3)n1 [72 621]	–	~30	40	–	–
Cc1cc(Nc2ccc(C(=O)N3CCN(C)CC3)cc2)nc(-c2ccc(Cl)cc2)n1 [72 292]	–	0	–	55	–
Cc1cc(Nc2ccc(OCCN3CCOCC3)cc2)nc(-c2ccc3c(c2)OCO3)n1 [730 731]	–	0	–	37	Percentage reduction of arterial pressure of anaesthetised rat [6]: 29%; Duration of effect [6]: 30 mn; ED50 [5]: 27 mg/kg; LD50 [3]: > 2000 mg/kg
CCOC(=O)c1ccc(Nc2cc(C)nc(-c3ccc(Cl)cc3)n2)cc1 [72 283]	40	0	–	–	–
CCOC(=O)c1ccc(Nc2cc(C)nc(-c3cccc(F)c3)n2)cc1 [72 778]	–	0	–	–	inhibition in vivo at 100 mg/kg [1]: 35%
Cc1cc(Nc2ccccc2C(=O)OCC(O)CO)nc(-c2ccc3c(c2)OCO3)n1 (stereo not shown) [72 686]	–	0	–	–	inhibition in vivo at 130 mg/kg [5, 7]: 50%; inhibition in vivo at 25 mg/kg ([2]; 25 mg/kg/PO): 35%
COc1cc(-c2nc(C)cc(Nc3ccccc3C(=O)OCC3COC(C)(C)O3)n2)cc(OC)c1OC (stereo not shown) [71 510]	40	0	35	–	inhibition in vivo at 100 mg/kg [1]: 40%
Cc1cc(Nc2ccccc2C(=O)OCC2COC(C)(C)O2)nc(-c2cccc(C(F)(F)F)c2)n1 (stereo not shown) [72 495, N-[2-(3'trifluoromethylphenyl) -6-methyl-4-pyrimidyl](2",2" -dimethyldioxolan-4"-yl) methyl anthranilate]	–	0	–	115	–
Cc1cc(Nc2ccc(OCCN3CCCCCC3)cc2)nc(-c2ccccc2)n1 [730 379]	–	–	–	–	mortality ([3]; 625 mg/kg/PO): ~50%
COc1cc(-c2nc(C)cc(Nc3ccc(C(=O)N4CCCC4)cc3)n2)cc(OC)c1OC [72 271, 2-(3',4',5'-trimethoxyphenyl)-4-(parapyrrolidinocarbonylphenylamino) -6-methyl pyrimidino]	35	0	–	–	inhibition in vivo at 100 mg/kg [1]: 40%
COc1cc(-c2nc(C)cc(Nc3ccccc3C(N)=O)n2)cc(OC)c1OC [72 442]	55	0	–	–	inhibition in vivo at 100 mg/kg [1]: 60%; Percentage reduction of arterial pressure of anaesthetised rat [6]: 30%; Duration of effect [6]: 20 mn; inhibition in vivo at 100 mg/kg [5, 7]: 70%
COc1cc(-c2nc(C)cc(Nc3ccc(C(N)=O)cc3)n2)cc(OC)c1OC [72 417]	–	0	40	65	–
Cc1cc(Nc2ccc(C(N)=O)cc2)nc(-c2cccc(C(F)(F)F)c2)n1 [72 432]	45	0	35	200	inhibition in vivo at 100 mg/kg [1]: 35%
Cc1cc(Nc2ccc(CC(=O)O)cc2)nc(-c2cccc(F)c2)n1 [730 234]	35	–	–	–	inhibition in vivo at 100 mg/kg [5, 7]: 55%; mortality ([3]; 2 400 mg/kg/PO): ~50%
Cc1cc(Nc2ccc(OCCN3CCOCC3)cc2)nc(-c2ccc(N(C)C)cc2)n1 [740 140]	–	0	–	–	Percentage reduction of arterial pressure of anaesthetised rat [6]: 40%; Duration of effect [6]: 30 mn; ED50 [5]: 33 mg/kg; LD50 [3]: > 2000 mg/kg
Cc1cc(Nc2ccc(OCCN3CCCC3)cc2)nc(-c2cccc(C(F)(F)F)c2)n1 [730 243]	50	–	–	–	mortality ([3]; 1000 mg/kg, 1 000 mg/kg/PO): 0%
CCOC(=O)c1ccc(Nc2cc(C)nc(-c3ccc4c(c3)OCO4)n2)cc1 [72 613]	–	0	70	–	activation at 1 µg/mL [4]: 85%
